This experiment concerns CD2F1 mice, L1210 leukemia ip, survival T/C. As to the kind of experiment: NCI In Vivo Anticancer Drug Screen. Data for tumor model L1210 Leukemia (intraperitoneal) in CD2F1 (CDF1) mice. The following applies: higher = longer survival. In outline: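 Each value reflects a quotient of treated over vehicle control outcomes in mice with a transplanted tumor.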
The mark [1] stands for this setting: endpoint: mean survival time, dose: 100.0 mg/kg/injection, schedule: Q04DX003 (ip), vehicle: Klucel (hydroxypropylcellulose) (HPC).
Where [2] appears, read: endpoint: mean survival time, dose: 200.0 mg/kg/injection, schedule: Q04DX003 (ip), vehicle: Klucel (hydroxypropylcellulose) (HPC).
The mark [3] stands for this setting: endpoint: mean survival time, dose: 400.0 mg/kg/injection, schedule: Q04DX003 (ip), vehicle: Klucel (hydroxypropylcellulose) (HPC).
Where [4] appears, read: endpoint: mean survival time, dose: 100.0 mg/kg/injection, schedule: Q01DX009 (ip), vehicle: saline with Tween-80.
[5] abbreviates: endpoint: mean survival time, dose: 200.0 mg/kg/injection, schedule: Q01DX009 (ip), vehicle: saline with Tween-80.
Where [6] appears, read: endpoint: mean survival time, dose: 400.0 mg/kg/injection, schedule: Q01DX009 (ip), vehicle: saline with Tween-80.
Setting [7] is: endpoint: mean survival time, dose: 100.0 mg/kg/injection, schedule: Q04DX003 (ip), vehicle: saline with Tween-80.
Setting [8] is: endpoint: mean survival time, dose: 200.0 mg/kg/injection, schedule: Q04DX003 (ip), vehicle: saline with Tween-80.
Where [9] appears, read: endpoint: mean survival time, dose: 400.0 mg/kg/injection, schedule: Q04DX003 (ip), vehicle: saline with Tween-80.
Setting [10] is: endpoint: mean survival time, dose: 100.0 mg/kg/injection, schedule: Q01DX001 (ip), vehicle: saline with Tween-80.
[11] abbreviates: endpoint: mean survival time, dose: 200.0 mg/kg/injection, schedule: Q01DX001 (ip), vehicle: saline with Tween-80.
Where [12] appears, read: endpoint: mean survival time, dose: 400.0 mg/kg/injection, schedule: Q01DX001 (ip), vehicle: saline with Tween-80.

These results are taken from PubChem BioAssay AID256 (DTP/NCI, 2004).

Values joined by “and” are separate entries in the source; they are usually repeats but may differ in a detail not shown here. Equal entries are not always repeated. Toxic doses and inconclusive results are not listed.

Regarding `CC(C)(c1ccc(Nc2ccccc2)cc1)c1ccc(Nc2ccccc2)cc1`, the T/C reads like this: under setting [1], 96 % of control; under setting [2], 96 % of control; under setting [3], 92 % of control.
On to `CC(=O)N1CCCCC1`, for which the T/C is 102 % of control (endpoint: mean survival time, dose: 25.0 mg/kg/injection, schedule: Q01DX009 (ip), vehicle: saline); 96 % of control (endpoint: mean survival time, dose: 50.0 mg/kg/injection, schedule: Q01DX009 (ip), vehicle: saline); 102 % of control (endpoint: mean survival time, dose: 100.0 mg/kg/injection, schedule: Q01DX009 (ip), vehicle: saline).
`CCCCCCCCCCC(C)c1ccc(S(=O)(=O)O)cc1` (centres undefined): the T/C runs as follows: (endpoint: mean survival time, dose: 50.0 mg/kg/injection, schedule: Q01DX009 (ip), vehicle: saline sonified) 97 % of control; (endpoint: mean survival time, dose: 100.0 mg/kg/injection, schedule: Q01DX009 (ip), vehicle: saline sonified) 97 % of control; (endpoint: mean survival time, dose: 200.0 mg/kg/injection, schedule: Q01DX009 (ip), vehicle: saline sonified) 102 % of control.
As for `COc1ccc(OC)c(NC(=O)Nc2ccc(NC(C)=O)cc2)c1`, the T/C reads like this: under setting [4], 91 % of control; under setting [5], 95 % of control; under setting [6], 91 % of control.
With `C[CH2][Ge]([CH2]C)[CH2]C.C[CH2][Ge]([CH2]C)[CH2]C`, the T/C is, setting by setting: (endpoint: mean survival time, dose: 50.0 mg/kg/injection, schedule: Q04DX003 (ip), vehicle: saline with Tween-80) 104 % of control; under setting [7], 100 % of control; under setting [8], 104 % of control.
Regarding `O=C(Cc1ccccc1)c1ccc(O)cc1`, the T/C was 100 % of control under setting [7], 103 % of control under setting [8] and 111 % of control under setting [9].
With `CC(=O)C1CCC2C3CC=C4CC(n5c(=O)cc[nH]c5=O)CCC4(C)C3CCC12C` (centres undefined), the T/C was 97 % of control (endpoint: mean survival time, dose: 12.5 mg/kg/injection, schedule: Q04DX003 (ip), vehicle: Klucel (hydroxypropylcellulose) (HPC)); 98 % of control (endpoint: mean survival time, dose: 25.0 mg/kg/injection, schedule: Q04DX003 (ip), vehicle: Klucel (hydroxypropylcellulose) (HPC)); 101 % of control and 103 % of control (endpoint: mean survival time, dose: 50.0 mg/kg/injection, schedule: Q04DX003 (ip), vehicle: Klucel (hydroxypropylcellulose) (HPC)); 92 % of control and 101 % of control under setting [1]; 95 % of control under setting [2]; 90 % of control under setting [3].
Regarding `[Br][Sn]([Br])([c]1cccc2ccccc12)[c]1cccc2ccccc12`, the T/C was 105 % of control under setting [7], 109 % of control under setting [8] and 97 % of control under setting [9].
Regarding `CNC(=O)OC[C@H]1C2=C(C(=O)C(C)=C(N)C2=O)N2C[C@H]3N[C@H]3[C@@]12OC`, the T/C (endpoint: mean survival time, dose: 13.75 mg/kg/injection, schedule: Q01DX001 (ip), vehicle: carboxymethylcellulose (CMC)) was 113 % of control.
For `O=C1C(=O)c2ccccc2C(O)=C1CNCCO`, the T/C runs as follows: under setting [10], 97 % of control; under setting [11], 94 % of control; under setting [12], 94 % of control.
In the case of `CSc1ccccc1C1=CCCCC1`, the T/C runs as follows: (endpoint: mean survival time, dose: 100.0 mg/kg/injection, schedule: Q04DX003 (ip), vehicle: saline) 95 % of control; (endpoint: mean survival time, dose: 200.0 mg/kg/injection, schedule: Q04DX003 (ip), vehicle: saline) 93 % of control; (endpoint: mean survival time, dose: 400.0 mg/kg/injection, schedule: Q04DX003 (ip), vehicle: saline) 98 % of control.
Take `COc1ccc(C=C(C(=O)CCN(C)C)C(=O)CCN(C)C)cc1`: the T/C by setting is: (endpoint: median survival time, dose: 25.0 mg/kg/injection, schedule: Q01DX005 (ip), vehicle: saline) 100 % of control; (endpoint: median survival time, dose: 50.0 mg/kg/injection, schedule: Q01DX005 (ip), vehicle: saline) 100 % of control; (endpoint: median survival time, dose: 100.0 mg/kg/injection, schedule: Q01DX005 (ip), vehicle: saline) 100 % of control; (endpoint: median survival time, dose: 200.0 mg/kg/injection, schedule: Q01DX005 (ip), vehicle: saline) 102 % of control.
As for `NC1CCC(Br)C2CCCCC12` (centres undefined), the T/C is, setting by setting: (endpoint: mean survival time, dose: 5.0 mg/kg/injection, schedule: Q01DX001 (ip), vehicle: saline with Tween-80) 103 % of control; (endpoint: mean survival time, dose: 10.0 mg/kg/injection, schedule: Q01DX001 (ip), vehicle: saline with Tween-80) 103 % of control; (endpoint: mean survival time, dose: 20.0 mg/kg/injection, schedule: Q01DX001 (ip), vehicle: saline with Tween-80) 104 % of control.
As for `C=CCNC(=S)N/N=C\c1cc(OC)c(OC)c(OC)c1`, the T/C is 93 % of control under setting [4], 97 % of control under setting [5] and 106 % of control under setting [6].
Consider `c1ccc(C2Nc3ccccc3NC2c2ccccc2)cc1` (centres undefined), for which the T/C runs as follows: under setting [10], 95 % of control; under setting [11], 97 % of control; under setting [12], 103 % of control.
Turning to `NCCN1CCCC1`, the T/C was 96 % of control (endpoint: mean survival time, dose: 100.0 mg/kg/injection, schedule: Q04DX002 (ip), vehicle: saline); 111 % of control (endpoint: mean survival time, dose: 200.0 mg/kg/injection, schedule: Q04DX002 (ip), vehicle: saline); 103 % of control (endpoint: mean survival time, dose: 400.0 mg/kg/injection, schedule: Q04DX002 (ip), vehicle: saline).
As to `Nc1nc(N)c2c(ccc3c2ccn3Cc2cccc([N+](=O)[O-])c2)n1`, the T/C reads like this: (endpoint: median survival time, dose: 0.75 mg/kg/injection, schedule: Q01DX009 (ip), vehicle: saline with Tween-80) 104 % of control; (endpoint: median survival time, dose: 1.5 mg/kg/injection, schedule: Q01DX009 (ip), vehicle: saline with Tween-80) 111 % of control; (endpoint: median survival time, dose: 1.56 mg/kg/injection, schedule: Q01DX009 (ip), vehicle: saline with Tween-80) 110 % of control; (endpoint: median survival time, dose: 3.0 mg/kg/injection, schedule: Q01DX009 (ip), vehicle: saline with Tween-80) 117 % of control; (endpoint: median survival time, dose: 3.12 mg/kg/injection, schedule: Q01DX009 (ip), vehicle: saline with Tween-80) 118 % of control; (endpoint: median survival time, dose: 12.5 mg/kg/injection, schedule: Q01DX009 (ip), vehicle: saline with Tween-80) 90 % of control and 98 % of control. Also, the T/C (endpoint: median survival time, dose: 25.0 mg/kg/injection, schedule: Q01DX009 (ip), vehicle: saline with Tween-80) is 102 % of control and 103 % of control.
Turning to `NC(=O)NC1CCCCCC1`, the T/C is, setting by setting: under setting [4], 102 % of control; under setting [5], 109 % of control; under setting [6], 100 % of control.
Regarding `CC[C@@]1(O)C(=O)OCc2c1cc1n(c2=O)Cc2cc3c(OC)cccc3nc2-1`, the T/C was 105 % of control (endpoint: mean survival time, dose: 0.13 mg/kg/injection, schedule: Q01DX009 (ip), vehicle: saline with Tween-80); 111 % of control (endpoint: mean survival time, dose: 0.25 mg/kg/injection, schedule: Q01DX009 (ip), vehicle: saline with Tween-80); 101 % of control (endpoint: mean survival time, dose: 1.0 mg/kg/injection, schedule: Q01DX009 (ip), vehicle: saline with Tween-80); 105 % of control (endpoint: mean survival time, dose: 1.0 mg/kg/injection, schedule: Q04DX003 (ip), vehicle: other); 157 % of control (endpoint: mean survival time, dose: 1.56 mg/kg/injection, schedule: Q01DX009 (ip), vehicle: saline with Tween-80); 155 % of control (endpoint: mean survival time, dose: 2.0 mg/kg/injection, schedule: Q04DX003 (ip), vehicle: other). For the same compound, the T/C reads like this: (endpoint: mean survival time, dose: 2.25 mg/kg/injection, schedule: Q01DX009 (ip), vehicle: saline) 158 % of control; (endpoint: mean survival time, dose: 3.13 mg/kg/injection, schedule: Q01DX009 (ip), vehicle: saline with Tween-80) 86 % of control; (endpoint: mean survival time, dose: 3.8 mg/kg/injection, schedule: Q04DX003 (ip), vehicle: water) 154 % of control; (endpoint: mean survival time, dose: 4.0 mg/kg/injection, schedule: Q04DX003 (ip), vehicle: other) 153 % of control; (endpoint: mean survival time, dose: 7.5 mg/kg/injection, schedule: Q04DX003 (ip), vehicle: water) 90 % of control; (endpoint: mean survival time, dose: 8.0 mg/kg/injection, schedule: Q04DX003 (ip), vehicle: other) 164 % of control.
Regarding `CC(C)(C)COC(=O)Nc1cccc(O)c1`, the T/C is 96 % of control under setting [7], 95 % of control under setting [8] and 102 % of control under setting [9].
For `Cc1cc(N/N=C/c2ccccn2)nc2ccccc12`, the T/C is 102 % of control (endpoint: median survival time, dose: 6.25 mg/kg/injection, schedule: Q01DX009 (ip), vehicle: Klucel (hydroxypropylcellulose) (HPC)); 100 % of control (endpoint: median survival time, dose: 12.5 mg/kg/injection, schedule: Q01DX009 (ip), vehicle: Klucel (hydroxypropylcellulose) (HPC)); 97 % of control (endpoint: median survival time, dose: 25.0 mg/kg/injection, schedule: Q01DX009 (ip), vehicle: Klucel (hydroxypropylcellulose) (HPC)); 110 % of control (endpoint: median survival time, dose: 50.0 mg/kg/injection, schedule: Q01DX009 (ip), vehicle: Klucel (hydroxypropylcellulose) (HPC)).
